# Reference: paper PMC5233616, “Structural and functional analyses of human DDX41 DEAD domain” (Protein & Cell, 2016)
# Key:
# hDDX41 DEAD domain [1] = molecular target: T1, hDDX41 DEAD domain (Homo sapiens, UniProt Q9UJV9); assay: thermal shift assay; type: binding; conditions: unliganded Tm 41 °C
# T1 construct: gene DDX41; isolated DEAD domain (domain 1; motifs Q to III); monomer; full length is 1-622
# hDDX41 DEAD domain [2] = molecular target: T1, hDDX41 DEAD domain; assay: isothermal titration calorimetry; conditions: read-out: binding affinity
# T1 sequence (Q9UJV9 155-407 limits assumed): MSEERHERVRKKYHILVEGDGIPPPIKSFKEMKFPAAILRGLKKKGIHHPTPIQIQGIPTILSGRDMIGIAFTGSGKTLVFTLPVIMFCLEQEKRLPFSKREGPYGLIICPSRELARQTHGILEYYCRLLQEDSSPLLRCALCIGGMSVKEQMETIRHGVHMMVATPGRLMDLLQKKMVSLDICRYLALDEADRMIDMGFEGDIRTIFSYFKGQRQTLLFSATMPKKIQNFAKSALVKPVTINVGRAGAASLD
Structure (SMILES),Tm increase (hDDX41 DEAD domain [1]),Kd (hDDX41 DEAD domain [2])
Nc1ncnc2c1ncn2[C@@H]1O[C@H](COP(=O)(O)OP(=O)(O)O)[C@@H](O)[C@H]1O [ADP],2.2 °C,31 µM
Nc1ncnc2c1ncn2[C@@H]1O[C@H](COP(=O)(O)O)[C@@H](O)[C@H]1O [AMP],3.9 °C,61 µM
